Source: ChEMBL document CHEMBL5725286, “Polyfluorinated compounds acting as bruton tyrosine kinase inhibitors” (2017)

Molecular target: Tyrosine-protein kinase BTK (Homo sapiens, UniProt Q06187)
Experiment: HTRF Assay: The enzyme reaction mixture of BTK wild type standard HTRF assay contained 1 nM BTK wild type, 1 μM biotin-TK1 peptide, and 30 μM ATP in a buffer. The enzyme reaction were carried out at room temperature for 60 minutes. 5 μl of 0.2 M EDTA were added to quench the reaction and then […] were added at final concentrations of 2 nM antibody and 62.5 nM XL665. The plates were incubated at room temperature for 60 minutes and then read in the Envision plate reader.

Sequence of Tyrosine-protein kinase BTK (Q06187 whole entry): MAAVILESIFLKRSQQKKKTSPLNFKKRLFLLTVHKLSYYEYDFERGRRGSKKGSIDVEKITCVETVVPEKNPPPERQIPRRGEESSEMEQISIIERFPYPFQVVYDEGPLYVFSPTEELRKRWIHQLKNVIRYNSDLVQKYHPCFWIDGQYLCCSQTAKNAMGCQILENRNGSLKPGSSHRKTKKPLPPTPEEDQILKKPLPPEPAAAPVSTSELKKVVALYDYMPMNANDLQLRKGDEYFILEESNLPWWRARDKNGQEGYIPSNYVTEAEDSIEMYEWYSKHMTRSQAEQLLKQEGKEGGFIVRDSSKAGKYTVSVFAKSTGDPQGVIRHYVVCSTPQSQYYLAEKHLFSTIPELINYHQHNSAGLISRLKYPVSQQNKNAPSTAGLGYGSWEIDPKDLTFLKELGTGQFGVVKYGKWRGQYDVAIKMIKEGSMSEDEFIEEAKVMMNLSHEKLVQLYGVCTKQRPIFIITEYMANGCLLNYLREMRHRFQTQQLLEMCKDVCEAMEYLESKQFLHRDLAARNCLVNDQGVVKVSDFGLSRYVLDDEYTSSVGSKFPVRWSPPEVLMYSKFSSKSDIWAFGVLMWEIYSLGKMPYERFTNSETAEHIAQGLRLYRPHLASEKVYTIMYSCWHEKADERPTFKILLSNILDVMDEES

Nc1ncnc2c1c(-c1ccc(Oc3c(F)c(F)cc(F)c3F)cc1F)nn2C1CCC(NC(=O)CSSCC(=O)NC2CCC(n3nc(-c4ccc(Oc5c(F)c(F)cc(F)c5F)cc4F)c4c(N)ncnc43)CC2)CC1 (stereo unspecified)
IC50: 22 nM
